Data taken from patent publication US8278288B2, “Organosiloxanes containing ester derivatives of ascorbic acid” (Dow Corning Corporation, priority 2007, dated 2012).
Like-named read-outs stand apart in the source and are kept apart here. Marks after values point to notes of the source that are not given here.

Key:
[1] = Solubility in various personal care solvents
Method: A 36 wt % mixture of the referenced sample and listed solvents were prepared in a glass vial. The sealed glass vials containing the mixtures were then placed in a 60° C. water bath and periodically shaken and observed.

[2] = tested on: Melanoderm tissue model MEL 300 A; experiment: Skin whitening effect: melanin concentration in MelanoDerm tissue model; type: cell-based, human
Method: This example illustrates cell viability properties and efficacy of skin lightening formulations according to the present invention. In particular, two formulations according to the present invention (containing AUTS as prepared according to Example 4), water (a negative control), 1% kojic acid (Sigma, Wis.) in water (positive control), and ascorbyl tetraisopalmitate in D5 (decamethylcyclopentasiloxane) were assayed and compared for cell viability and skin lightening efficacy (see Table 1) MELANODERM™ cell viability was tested by MTT assay after exposure to test and reference preparations. The assays were carried out using Melanoderm tissue model MEL 300 A cell line (MELANODERM tissue model available from MatTek, Ashland, Mass.), This melanoderm model consists of normal, human-derived epidermal keratinocytes and melanocytes that have been co-cultured to form a multilayer, highly differentiated model of human epidermis. […] (Cell viability with both materials in D5 at 10 and 25 μL dose was >90%). Skin whitening effect was evaluated by measuring melanin concentration (μg/ml) after six applications of each preparation.

[3] = 10 μl dose, six applications, in D5 (AUTS 3.2 wt %, VC-IP 6.4%)
[4] = 25 μl dose, six applications, in D5 (AUTS 3.2 wt %, VC-IP 6.4%)
[5] = 36 wt % mixture, 60° C. water bath, ** = nearly clear to hazy solution, gels when cooled to room temperature

| Solubility in A = C12-15 Alkyl Benzoate (FINSOLV TN) [1] | Solubility in B = Cyclopentasiloxane (Dow/Corning 245 Fluid) [1] | Solubility in C = Squalane (Uniqema PRIPURE 3759) [1] | Solubility in D = Tricaprylin (TRIVENT OC-G) [1] | Solubility in Water [1] | Molecule | Melanin concentration at Day 10, Average [2, 3] | Melanin concentration at Day 10, Average [2, 4] | further results |
| --- | --- | --- | --- | --- | --- | --- | --- | --- |
| Yes | No | No | Yes | No | Bis-Ascorbyl Undecyl Polydimethylsiloxane [Comparative sample #2] | – | – | – |
| – | – | – | – | – | C[Si](C)(C)O[Si](C)(CCCCCCCCCCC(=O)OCC(O)C1OC(=O)C(O)=C1O)O[Si](C)(C)C (centres unmarked) [AUTS, Ascorbyl Undecyl Trisiloxane] | 37.4* μg/ml | 26.6** μg/ml | Solubility in Water ([1]; 36 wt % mixture, 60° C. water bath, * = translucent mixture that thickens to a viscous hazy liquid when cooled): No; Solubility in A = C12-15 Alkyl Benzoate (FINSOLV TN) [1, 5]: Yes**; Solubility in B = Cyclopentasiloxane (Dow/Corning 245 Fluid) [1, 5]: Yes**; Solubility in C = Squalane (Uniqema PRIPURE 3759) [1, 5]: Yes**; Solubility in E = Caprylic/Capric Triglyceride [1, 5]: Yes** |
| No | No | No | No | Yes* | Bis-Ascorbyl Undecyl Tetramethyldisiloxane [Comparative sample #1] | – | – | – |
| – | – | – | – | – | O=c1cc(CO)occ1O [Kojic Acid, kojic acid] | – | – | Melanin concentration at Day 10, Average ([2]; 25 μL dose, 1 wt % in water, six applications (positive control)): 41.9 µg/mL |
| – | – | – | – | – | CCCCCCCCC(CCCCCC)C(=O)OC[C@H](OC(=O)C(CCCCCC)CCCCCCCC)[C@H]1OC(=O)C(OC(=O)C(CCCCCC)CCCCCCCC)=C1OC(=O)C(CCCCCC)CCCCCCCC (some centres unmarked) [VC-IP, ascorbyl tetraisopalmitate] | 57.8* μg/ml | 55.2** μg/ml | – |
